# Assay results taken from US20170334899A1, “AMINO-SUBSTITUTED ISOTHIAZOLES” (Bayer Pharma Aktiengesellschaft, priority 2014, published 2017).
# Target: T1, human kinase Mps-1 (Homo sapiens, UniProt P33981)
# T1 construct: N-terminally GST-tagged human full length recombinant Mps-1 kinase; GST (N); purchased Invitrogen, Karslruhe, Germany PV4071
# T1 sequence (P33981 1-857): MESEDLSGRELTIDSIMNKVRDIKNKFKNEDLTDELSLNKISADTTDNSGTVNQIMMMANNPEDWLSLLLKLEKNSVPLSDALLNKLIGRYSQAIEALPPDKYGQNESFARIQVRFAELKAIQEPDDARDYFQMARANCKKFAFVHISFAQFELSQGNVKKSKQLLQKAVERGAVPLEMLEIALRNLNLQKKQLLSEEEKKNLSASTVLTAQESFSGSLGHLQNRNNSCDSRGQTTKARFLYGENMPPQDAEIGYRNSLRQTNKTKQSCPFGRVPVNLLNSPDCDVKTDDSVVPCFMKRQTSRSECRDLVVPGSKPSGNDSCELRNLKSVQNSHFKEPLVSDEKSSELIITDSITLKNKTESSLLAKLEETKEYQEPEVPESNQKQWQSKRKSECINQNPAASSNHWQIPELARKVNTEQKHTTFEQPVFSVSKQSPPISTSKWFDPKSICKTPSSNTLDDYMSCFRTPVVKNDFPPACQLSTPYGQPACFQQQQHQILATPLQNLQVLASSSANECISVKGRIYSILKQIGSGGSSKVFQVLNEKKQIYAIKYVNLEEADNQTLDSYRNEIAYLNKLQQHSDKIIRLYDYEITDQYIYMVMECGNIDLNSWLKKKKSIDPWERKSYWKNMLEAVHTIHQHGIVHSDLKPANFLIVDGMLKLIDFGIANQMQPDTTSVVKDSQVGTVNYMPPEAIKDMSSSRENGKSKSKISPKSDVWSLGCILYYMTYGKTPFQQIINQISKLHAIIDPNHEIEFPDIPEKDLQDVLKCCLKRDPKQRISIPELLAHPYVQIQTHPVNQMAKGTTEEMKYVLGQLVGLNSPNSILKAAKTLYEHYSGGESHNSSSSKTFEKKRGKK
# Experiment: Mps-1 kinase assay (TR-FRET)
# Type: biochemical
# Details: Mps-1 TR-FRET kinase assay; avg; read-out: Mps1 avg (IC50 [mol/l])
# Outline: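 Inhibition normalised between uninhibited reaction (0%) and enzyme-free wells (100%), using the blank-corrected TR-FRET 665/620 nm ratio after EDTA stop. Reaction: ~0.5 nM GST-Mps-1 full length, 10 μM ATP, 1 μM biotin-peptide, 60 min at 22 °C, after 15 min compound pre-binding, pH 7.7.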
row,SMILES,IC50 [µM]
1,"Cc1nsc(Nc2cnc3ccccc3n2)c1C(=O)Nc1cccc(C(=O)OC(C)(C)C)c1 [Example 49, tert-Butyl 3-({[3-methyl-5-(quinoxalin-2-ylamino)-1,2-thiazol-4-yl]carbonyl}amino)-benzoate]",≥ 20
2,"Cc1nsc(Nc2ccc(C#N)cn2)c1C(=O)Nc1ccc(OC2CCCN(CCF)C2)nc1 (centres unmarked) [Example 38, 5-[(5-Cyanopyridin-2-yl)amino]-N-(6-{[1-(2-fluoroethyl)piperidin-3-yl]oxy}pyridin-3-yl)-3-methyl-1,2-thiazole-4-carboxamide]",≥ 20
3,"COC(=O)c1cccc(NC(=O)c2c(C)nsc2Nc2cnc3ccccc3n2)c1 [Example 50, Methyl 3-({[3-methyl-5-(quinoxalin-2-ylamino)-1,2-thiazol-4-yl]carbonyl}amino)-benzoate]",2.5
4,"Cc1nsc(Nc2ccc(C#N)cn2)c1C(=O)Nc1ccc(Nc2ccc(F)c(F)c2)nc1 [Example 433, 5-[(5-Cyanopyridin-2-yl)amino]-N-{6-[(3,4-difluorophenyl)amino]pyridin-3-yl}-3-methyl-1,2-thiazole-4-carboxamide]",> 20
5,"Cc1nsc(Nc2cnc3ccccc3n2)c1C(=O)Nc1cccc(C(=O)N2CCN(C(=O)OC(C)(C)C)CC2)c1 [Example 55, tert-Butyl 4-[3-({[3-methyl-5-(quinoxalin-2-ylamino)-1,2-thiazol-4-yl]carbonyl}amino)-benzoyl]piperazine-1-carboxylate]",≥ 20
6,"Cc1nsc(Nc2cnc3ccccc3n2)c1C(=O)Nc1cccc(C(=O)NC(C)(C)C)c1 [Example 53, N-[3-(tert-Butylcarbamoyl)-phenyl]-3-methyl-5-(quinoxalin-2-ylamino)-1,2-thiazole-4-carboxamide]",≥ 20
7,"Cc1nsc(Nc2cnc(C(F)(F)F)cn2)c1C(=O)Nc1ccc(OC2CCN(C(=O)OC(C)(C)C)CC2)nc1 [Example 5, tert-Butyl 4-[(5-{[(3-methyl-5-{[5-(trifluoromethyl)pyrazin-2-yl]amino}-1,2-thiazol-4-yl)carbonyl]amino}pyridin-2-yl)oxy]piperidine-1-carboxylate]",≥ 20
8,"Cc1nsc(Nc2cnc(C(F)(F)F)cn2)c1C(=O)Nc1ccc(F)c(OCCCNC(=O)C(F)(F)F)c1 [Example 427, N-(4-Fluoro-3-{3-[(trifluoroacetyl)amino]propoxy}phenyl)-3-methyl-5-{[5-(trifluoro-methyl)pyrazin-2-yl]amino}-1,2-thiazole-4-carboxamide]",≥ 20
9,"CCN1CCC(Oc2ccc(NC(=O)c3c(C)nsc3Nc3cnc(C(F)(F)F)cn3)cn2)C(F)(F)C1 (centres unmarked) [Example 406, N-{6-[(1-Ethyl-3,3-difluoropiperidin-4-yl)oxy]pyridin-3-yl}-3-methyl-5-{[5-(trifluoromethyl)pyrazin-2-yl]amino}-1,2-thiazole-4-carboxamide]",> 20
10,"Cc1nsc(Nc2cnc(C(F)(F)F)cn2)c1C(=O)Nc1ccc(F)c(OCC2CCN(CC(F)(F)F)C2)c1 (centres unmarked) [Example 318, N-(4-fluoro-3-{[1-(2,2,2-trifluoroethyl)pyrrolidin-3-yl]methoxy}phenyl)-3-methyl-5-{[5-(trifluoromethyl)pyrazin-2-yl]amino}-1,2-thiazole-4-carboxamide]",> 20
11,"CC(=O)Nc1ccc(NC(=O)c2c(C)nsc2Nc2ccc(C#N)cn2)cn1 [Example 435, N-(6-Acetamidopyridin-3-yl)-5-[(5-cyanopyridin-2-yl)amino]-3-methyl-1,2-thiazole-4-carboxamide]",> 20
12,"Cc1nsc(Nc2cnccn2)c1C(=O)Nc1ccc(OC2CCCN(C(=O)OC(C)(C)C)C2)nc1 (centres unmarked) [Example 41, tert-Butyl 3-{[5-({[3-methyl-5-(pyrazin-2-ylamino)-1,2-thiazol-4-yl]carbonyl}amino)-pyridin-2-yl]oxy}piperidine-1-carboxylate]",≥ 20
13,"Cc1nsc(Nc2cnc3ccccc3n2)c1C(=O)Nc1cccc(C(=O)N[C@H](C(=O)OC(C)(C)C)[C@@H](C)OC(C)(C)C)c1 [Example 57, tert-Butyl O-tert-butyl-N-[3-({[3-methyl-5-(quinoxalin-2-ylamino)-1,2-thiazol-4 yl]carbonyl}amino)-benzoyl]threoninate]",≥ 20

# The next lines start with the values.
row,IC50 [µM],SMILES
1,≥ 20,"Cc1nsc(Nc2cnc(C(F)(F)F)cn2)c1C(=O)Nc1ccc(OCCNC(=O)C(F)(F)F)nc1 [Example 425, 3-Methyl-N-(6-{2-[(trifluoroacetyl)amino]ethoxy}pyridin-3-yl)-5-{[5-(trifluoro-methyl)pyrazin-2-yl]amino}-1,2-thiazole-4-carboxamide]"
2,> 20,"Cc1nsc(Nc2cnc3ccccc3n2)c1C(=O)Nc1cccc(NC(=O)C(F)(F)F)c1 [Example 432, 3-Methyl-5-(quinoxalin-2-ylamino)-N-{3-[(trifluoroacetyl)amino]phenyl}-1,2-thiazole-4-carboxamide]"
3,≥ 20,"COCCOc1ccc(NC(=O)c2c(C)nsc2Nc2nc3c(C(F)(F)F)cccc3s2)cc1F [Example 1, N-[3-Fluoro-4-(2-methoxyethoxy)phenyl]-3-methyl-5-{[4-(trifluoromethyl)-1,3-benzothiazol-2-yl]amino}-1,2-thiazole-4-carboxamide]"
4,> 20,"Cc1nsc(Nc2cncc(C(F)(F)F)n2)c1C(=O)Nc1ccc(OCCN(C)C(=O)OC(C)(C)C)nc1 [Example 430, tert-Butyl methyl{2-[(5-{[(3-methyl-5-{[6-(trifluoromethyl)pyrazin-2-yl]amino}-1,2-thiazol-4-yl)carbonyl]amino}pyridin-2-yl)oxy]ethyl}carbannate]"
5,> 20,"Cc1nsc(Nc2cnc(C(F)(F)F)cn2)c1C(=O)Nc1ccc(OCCN(C)C(=O)OC(C)(C)C)nc1 [Example 429, tert-Butyl methyl{2-[(5-{[(3-methyl-5-{[5-(trifluoromethyl)pyrazin-2-yl]amino}-1,2-thiazol-4-yl)carbonyl]amino}pyridin-2-yl)oxy]ethyl}carbannate]"
6,≥ 20,"Cc1nsc(Nc2cc(C#N)ccn2)c1C(=O)Nc1ccc(OCCCNC(=O)OC(C)(C)C)nc1 [Example 43, tert-Butyl [3-({5-[({5-[(4-cyanopyridin-2-yl)amino]-3-methyl-1,2-thiazol-4-yl}-carbonyl)amino]pyridin-2-yl}oxy)propyl]carbamate]"
7,≥ 20,"COCCOc1ccc(NC(=O)c2c(C)nsc2Nc2nc3c(C(F)(F)F)cccc3s2)cn1 [Example 3, N-[6-(2-Methoxyethoxy)pyridin-3-yl]-3-methyl-5-{[4-(trifluoromethyl)-1,3-benzo-thiazol-2-yl]amino}-1,2-thiazole-4-carboxamide]"
8,≥ 20,"Cc1nsc(Nc2ccc(C#N)cn2)c1C(=O)Nc1ccc(OC2CCCN(CC(F)(F)F)C2)nc1 (centres unmarked) [Example 40, 5-[(5-Cyanopyridin-2-yl)amino]-3-methyl-N-(6-{[1-(2,2,2-trifluoroethyl)piperidin-3-yl]oxy}pyridin-3-yl)-1,2-thiazole-4-carboxamide]"
9,≥ 20,"Cc1nsc(Nc2cnccn2)c1C(=O)Nc1ccc(OCCCN)nc1 [Example 48, N-[6-(3-Aminopropoxy)pyridin-3-yl]-3-methyl-5-(pyrazin-2-ylamino)-1,2-thiazole-4-carboxamide]"
10,> 20,"CCN1CC[C@H](Oc2ccc(NC(=O)c3c(C)nsc3Nc3cnc(C(F)(F)F)cn3)cn2)[C@H](F)C1 [Example 424, N-(6-{[(3R,4S)-1-Ethyl-3-fluoropiperidin-4-yl]oxy}pyridin-3-yl)-3-methyl-5-{[5-(trifluoromethyl)pyrazin-2-yl]amino}-1,2-thiazole-4-carboxamide]"
11,≥ 20,"Cc1nsc(Nc2cnc3ccccc3n2)c1C(=O)Nc1ccc(OCCCNC(=O)OC(C)(C)C)nc1 [Example 42, tert-Butyl (3-{[5-({[3-methyl-5-(quinoxalin-2-ylamino)-1,2-thiazol-4-yl]carbonyl}-amino)pyridin-2-yl]oxy}propyl)carbamate]"
12,≥ 20,"Cc1nsc(Nc2cc(C#N)ccn2)c1C(=O)Nc1ccc(OCCCNCC(F)F)nc1 [Example 45, 5-[(4-Cyanopyridin-2-yl)amino]-N-(6-{3-[(2,2-difluoroethyl)amino]propoxy}pyridin-3-yl)-3-methyl-1,2-thiazole-4-carboxamide]"
13,≥ 20,"Cc1nsc(Nc2cnccn2)c1C(=O)Nc1ccc(OCCCNC(=O)OC(C)(C)C)nc1 [Example 47, tert-Butyl (3-{[5-({[3-methyl-5-(pyrazin-2-ylamino)-1,2-thiazol-4-yl]carbonyl}-amino)pyridin-2-yl]oxy}propyl)carbamate]"
